Structures are written as SMILES.

The first assay relates to Ba/F3-KDR-transfected cells in the presence of 10 ng/ml murine IL3. Put plainly: Ba/F3-KDR (plus IL3) cellular proliferation counterscreen, Alamar Blue. It is filed as cell-based. The following applies: Mus musculus, read-out: BAF3-KDR (PLUS IL3) 384 well pIC50; plus IL3, 384 well; read-out: BAF3-KDR (PLUS IL3) 284 well pIC50 (converted). The method, then:
Ba/F3-KDR (Minus IL3 or Plus IL3) (Cellular Proliferation Assay)
[…] Cells were put in an incubator at 37° C. and 5% CO2. After 24 hours, 10 μl of Alamar Blue solution (0.5 mM K3Fe(CN)6, 0.5 mM KaFe(CN)6, 0.15 mM Resazurin and 100 mM Phosphate Buffer) was added to the wells, incubated for 4 hours at 37° C. and 5% CO2 before RFU's (Relative Fluorescence Units) (ex. 540 nm., em. 590 nm.) were measured in a flurorescence plate reader.
As a counterscreen the same experiment was performed in the presence of 10 ng/ml murine IL3.
In a 96 well plate, 180 μl cell culture medium (phenol red free RPMI-1640, 10% FBS, 2 mM L-Glutamine and 50 μg/ml Gentamycin) containing 10000 cells per well of Ba/F3-KDR-transfected cells were pipette and 20 μl of compound dilution in DMSO was added. Cells were put in an incubator at 37° C. and 5% CO2. After 24 hours, 40 μl of Alamar Blue solution (0.5 mM K3Fe(CN)6, 0.5 mM KaFe(CN)6, 0.15 mM Resazurin and 100 mM Phosphate Buffer) was added to the wells, incubated for 4 hours at 37° C. and 5% CO2 RFU's (Relative Fluorescence Units) (ex. 540 nm., em. 590 nm.) were measured in a flurorescence plate reader.
Background: A counterscreen serves to expose hits that act by an unwanted route or on another target.
As for `COc1cc(OC)cc(N(CC2CC2)c2ccc3ncc(N4CCOCC4)nc3c2)c1` [Compound 63], the IC50 was over 10 µM.

Still in this assay, the particulars now being: Mus musculus; plus 10 ng/ml murine IL3; read-out: BAF3-KDR (PLUS IL3) 384 well pIC50 (converted).
In the case of `COc1cc(OC)cc(N(CCN2CCOCC2)c2ccc3ncc(-c4ccc(NC(=O)N5CCOCC5)nc4)nc3c2)c1` [Compound 35], the IC50 is over 10 µM.

Take `COc1cc(OC)cc(N(CCO)c2ccc3ncc(-c4ccc(N5CCN(C)CC5)nc4)nc3c2)c1` [Compound 163]: the IC50 is 7.59 µM.

`CO/N=C(\C)c1cnc2ccc(N(CCO)c3cc(OC)cc(OC)c3)cc2n1` [Compound 29]: the IC50 is over 10 µM.

For the compound `CNc1ccc(-c2cnc3ccc(N(CCCNCC(F)(F)F)c4cc(OC)cc(OC)c4)cc3n2)cn1` [Compound 129], the IC50 is over 10 µM.

Turning to `COc1cc(OC)cc(N(CCN)c2ccc3ncc(-c4ccn(C)c4)nc3c2)c1` [Compound 79], the IC50 was over 10 µM.

For the compound `COc1cc(OC)cc(N(CCNC(C)C)c2ccc3ncc(C(=O)NCCCN4CCCCC4)nc3c2)c1` [Compound 182], the IC50 was over 10 µM.

For the compound `COc1cc(OC)cc(N(CCCNCC(F)(F)F)c2ccc3ncc(-c4ccnc(Cl)c4)nc3c2)c1` [Compound 145], the IC50 was over 10 µM.

Turning to `COc1cc(OC)cc(N(CCNC(C)C)c2ccc3ncc(NCC4CCNCC4)nc3c2)c1` [Compound 161], the IC50 was over 10 µM.

As to `COc1cc(OC)cc(N(CCNC(C)C)c2ccc3ncc(-n4cnc(COC(C)=O)c4)nc3c2)c1` [Compound 167], the IC50 was over 10 µM.

Take `COc1cc(OC)cc(N(CCO)c2ccc3ncc(C4=CCN(C(=O)OC(C)(C)C)C4)nc3c2)c1` [Compound 173]: the IC50 was over 10 µM.

In the case of `COc1cc(OC)cc(N(CCO)c2ccc3ncc(C4CCN(C(=O)OC(C)(C)C)CC4)nc3c2)c1` [Compound 185], the IC50 is over 10 µM.

`COc1cc(OC)cc(N(CCO)c2ccc3ncc(-c4ccc(N5CCN(C(=O)OC(C)(C)C)CC5)cc4)nc3c2)c1` [Compound 156]: the IC50 is over 10 µM.

`COc1cc(OC)cc(N(CC#Cc2ncccc2OC)c2ccc3ncc(-c4cccnc4)nc3c2)c1` [Compound 183]: the IC50 is over 10 µM.

As to `COc1cc(OC)cc(N(CCO)c2ccc3ncc(-c4ccccc4CCO)nc3c2)c1` [Compound 151], the IC50 was over 10 µM.

Take `COc1cc(OC)cc(N(CCO)c2ccc3ncc(-c4ccnc(C(=O)NCCCCCO)c4)nc3c2)c1` [Compound 139]: the IC50 is over 10 µM.

Consider `COc1cc(OC)cc(N(CCO)c2ccc3ncc(C4=CCN(C(=O)OC(C)(C)C)CC4)nc3c2)c1` [Compound 178], for which the IC50 is over 10 µM.

Consider `COc1cc(OC)cc(N(CCN2CCOCC2)c2ccc3ncc(-c4ccc(N)nc4)nc3c2)c1` [Compound 169], for which the IC50 is over 10 µM.

For `COc1cc(OC)cc(N(CCNC(C)C)c2ccc3ncc(N4CCC(CN)CC4)nc3c2)c1` [Compound 67], the IC50 was over 10 µM.

In the case of `COc1cc(OC)cc(N(CCNC(C)C)c2ccc3ncc(C(=O)NCCN4CCOCC4)nc3c2)c1` [Compound 160], the IC50 is over 10 µM.

As for `COc1cc(OC)cc(N(CCNC(C)C)c2ccc3ncc(-c4ccc(N5CCN(C)CC5)nc4)nc3c2)c1` [Compound 170], the IC50 was over 10 µM.

`COc1cc(OC)cc(N(CCCO)c2ccc3ncc(-c4ccnc(F)c4)nc3c2)c1` [Compound 142]: the IC50 was over 10 µM.

Take `COc1cc(OC)cc(N(CCNC(C)C)c2ccc3ncc(C(=O)N4CCN(C)CC4)nc3c2)c1` [Compound 179]: the IC50 is over 10 µM.

For `COc1cc(OC)cc(N(CCNC(C)C)c2ccc3ncc(C(=O)N4CCOCC4)nc3c2)c1` [Compound 181], the IC50 is over 10 µM.

For the compound `COc1cc(OC)cc(N(CCO)c2ccc3ncc(-c4ccc(N5CCNCC5)nc4)nc3c2)c1` [Compound 165], the IC50 is over 10 µM.

Regarding `COc1cc(OC)cc(N(CCO)c2ccc3ncc(/C(C)=N/OC(C)(C)C)nc3c2)c1` [Compound 171], the IC50 is over 10 µM.

With `COc1cc(OC)cc(N(CCNC(C)C)c2ccc3ncc(-c4ccc(N5CCOCC5)nc4)nc3c2)c1` [Compound 168], the IC50 is 7.08 µM.

In the case of `COc1cc(OC)cc(N(CCO)c2ccc3ncc(C(=O)Nc4cnn(C)c4)nc3c2)c1` [Compound 184], the IC50 is over 10 µM.

With `COc1cc(OC)cc(N(CCNC(C)C)c2ccc3ncc(-c4ccn[nH]4)nc3c2)c1` [Compound 189], the IC50 is over 10 µM.

Regarding `COc1cc(OC)cc(N(CCNC(C)C)c2ccc3ncc(C(=O)NCCCN4CCN(C)CC4)nc3c2)c1` [Compound 159], the IC50 is over 10 µM.

In the case of `COc1cc(OC)cc(N(CC2CC2)c2ccc3ncc(-c4c[nH]cn4)nc3c2)c1` [Compound 39], the IC50 was over 10 µM.

As for `COc1cc(OC)cc(N(CCNC(C)C)c2ccc3ncc(-c4ccnn4C4CCCCO4)nc3c2)c1` (stereo not drawn) [Compound 188], the IC50 was over 10 µM.

Regarding `COc1cc(OC)cc(N(CCCO)c2ccc3ncc(-c4ccnc(C(=O)NCCOCCO)c4)nc3c2)c1` [Compound 186], the IC50 was over 10 µM.

In the case of `COC(=O)C1CCCN1c1cnc2ccc(N(CCO)c3cc(OC)cc(OC)c3)cc2n1` (stereo not drawn) [Compound 172], the IC50 is over 10 µM.

On to `COc1cc(OC)cc(N(CCN2CCN(C(C)=O)CC2)c2ccc3ncc(-c4ccc(N)nc4)nc3c2)c1` [Compound 68], for which the IC50 is over 10 µM.

As to `COc1cc(OC)cc(N(CCO)c2ccc3ncc(-c4ccc(N5CCNCC5)cc4)nc3c2)c1` [Compound 166], the IC50 was 6.03 µM.

In the case of `COc1cc(OC)cc(N(CCCNCC(F)(F)F)c2ccc3ncc(-c4cnc(OC)nc4)nc3c2)c1` [Compound 26], the IC50 is over 10 µM.

Consider `COc1cc(OC)cc(N(CCNC(C)C)c2ccc3ncc(C(=O)N4CCCCC4)nc3c2)c1` [Compound 180], for which the IC50 was over 10 µM.

Turning to `COc1cc(OC)cc(N(CCCNCC(F)(F)F)c2ccc3ncc(C(=O)NCCN4CCOCC4)nc3c2)c1` [Compound 158], the IC50 was over 10 µM.

As for `COCC(O)CN(c1cc(OC)cc(OC)c1)c1ccc2ncc(-c3cccnc3)nc2c1` (single isomer, unassigned) [Compound 46], the IC50 was over 10 µM.

With `COc1cc(OC)cc(N(CC2CC2)c2ccc3ncc(NC(=O)c4ccc(F)cc4)nc3c2)c1` [Compound 28], the IC50 was over 10 µM.

Turning to `COc1cc(OC)cc(N(CCCNCC(F)(F)F)c2ccc3ncc(-c4ccnc(C(=O)NCCCCCO)c4)nc3c2)c1` [Compound 150], the IC50 was over 10 µM.

Consider `COc1cc(OC)cc(N(CCNC(C)C)c2ccc3ncc(-n4cnc(CO)c4)nc3c2)c1` [Compound 77], for which the IC50 is over 10 µM.

Still in this assay, the particulars now being: plus 10 ng/ml murine IL3.
Take `COCC(CN(c1cc(OC)cc(OC)c1)c1ccc2ncc(-c3cccnc3)nc2c1)OC(C)=O` (single isomer, unassigned) [Compound 76]: the “BAF3-KDR (PLUS IL3) 384 well pIC50” value is listed as under 5.

Take `COCC(O)CN(c1cc(OC)cc(OC)c1)c1ccc2ncc(-c3cccnc3)nc2c1` (single isomer, unassigned) [Compound 47]: the “BAF3-KDR (PLUS IL3) 384 well pIC50” value is under 5.

The next assay relates to Ba/F3-Flt3-transfected cells in the presence of 10 ng/ml murine IL3. Kind of assay: Ba/F3-Flt3 (plus IL3) cellular proliferation counterscreen, Alamar Blue. The assay is classed as cell-based. The conditions noted are these: Mus musculus; plus 10 ng/ml murine IL3; read-out: BAF3-FLT3 (PLUS IL3) 96 well pIC50 (converted).
For `COc1cc(OC)cc(N(CC2CC2)c2ccc3ncc(-c4cccc(N5CCOCC5)c4)nc3c2)c1` [Compound 92], the IC50 was over 10 µM.

As for `COc1cc(OC)cc(N(CC2CC2)c2ccc3ncc(C(=O)Nc4cncn4C)nc3c2)c1` [Compound 27], the IC50 was over 10 µM.

As to `COc1cc(OC)cc(N(CC2CC2)c2ccc3ncc(C(=O)N4CCC4)nc3c2)c1` [Compound 93], the IC50 was over 10 µM.

Take `COc1cc(OC)cc(N(CC2CC2)c2ccc3ncc(N4CCN(CCO)CC4)nc3c2)c1` [Compound 49]: the IC50 was over 10 µM.

In the case of `COc1cc(OC)cc(N(CC2CC2)c2ccc3ncc(-n4cccn4)nc3c2)c1` [Compound 95], the IC50 is over 10 µM.

For the compound `COc1cc(OC)cc(N(CC2CC2)c2ccc3ncc(-c4c[nH]cn4)nc3c2)c1` [Compound 39], the IC50 is over 10 µM.

For the compound `COc1cc(OC)cc(N(CC2CC2)c2ccc3ncc(NC(=O)c4ccc(F)cc4)nc3c2)c1` [Compound 28], the IC50 is over 10 µM.

Staying with this assay, now noted: Mus musculus; plus IL3, 96 well; read-out: BAF3-FLT3 (PLUS IL3) 96 well pIC50 (converted).
Take `COc1cc(OC)cc(N(CC2CC2)c2ccc3ncc(C#Cc4cncn4C)nc3c2)c1` [Compound 22]: the IC50 is over 10 µM.

In the case of `COc1cc(OC)cc(N(CC2CC2)c2ccc3ncc(-c4cnc5[nH]ccc5c4)nc3c2)c1` [Compound 88], the IC50 is over 10 µM.

On to `COc1cc(OC)cc(N(CC2CC2)c2ccc3ncc(-c4ccc5[nH]ccc5c4)nc3c2)c1` [Compound 86], for which the IC50 is over 10 µM.

As for `COc1cc(OC)cc(N(CC2CC2)c2ccc3ncc(N4CCOCC4)nc3c2)c1` [Compound 63], the IC50 is over 10 µM.

Take `COc1cc(OC)cc(N(CC2CC2)c2ccc3ncc(N4CCN(C)CC4)nc3c2)c1` [Compound 64]: the IC50 is over 10 µM.

With `COc1cc(OC)cc(N(CC2CC2)c2ccc3ncc(-c4ccnc(N5CCN(C)CC5)c4)nc3c2)c1` [Compound 37], the IC50 was about 4.68 µM.

For `COc1cc(OC)cc(N(CC2CC2)c2ccc3ncc(-c4ccnc(N5CCOCC5)c4)nc3c2)c1` [Compound 90], the IC50 is over 10 µM.

Regarding `COc1cc(OC)cc(N(CC2CC2)c2ccc3ncc(-c4nnc(C)o4)nc3c2)c1` [Compound 85], the IC50 was over 10 µM.

For the origin of these results see US10052320B2, “Substituted quinoxalines as FGFR kinase inhibitors” (ASTEX THERAPEUTICS LIMITED, priority 2011, dated 2018).
